Assay [1] deals with Thrips. The assay is described as follows: Thrips damage rating on cotton plants (Delta and Pineland variety 555), Example 1. In kind it is in vivo. Conditions: cotton variety 555, 1 = no damage, 5 = plant completely damaged (dead). An excerpt:
This example illustrates the effect of a composition of the invention on cotton plant damage and plant height for cotton plants planted in soil known to have nematode (Rotylenchulus reniformis) pressure. The cotton plants utilized were commercially available Delta and Pineland variety 555.
The compositions described in Table 1 below were applied either as a seed treatment (Samples B, C, and E-G) or in furrow (Sample D) at the respective application rates set forth in Table 1.

Assay [2] relates to Thrips. The assay is described as follows: Thrips damage rating on cotton plants (Fibermax cotton variety 960), Example 2. In kind it is in vivo. Conditions: 1 = no damage, 5 = dead. From the text:
This example illustrates the effect of the compositions from Table 1 for cotton plants planted in soil known to have nematode (Rotylenchulus reniformis) pressure. FIGS. 4 and 5 illustrate the Thrips damage ratings at three and four weeks, respectively, after planting. FIG. 6 illustrates the plant height seven weeks after planting. The cotton plants utilized were commercially available Fibermax cotton variety 960.

Structures are written as SMILES.

Take `O=[N+]([O-])NC1=NCCN1Cc1ccc(Cl)nc1` [B, imidacloprid]: the “Thrips Damage Rating” value in the assay with Thrips [1] (3 weeks after planting) is 2; in the assay on Thrips [1] (4 weeks after planting), 2.3; in the assay with Thrips [2] (3 weeks after planting), 2.63; in the assay with Thrips [2] (4 weeks after planting) it was 2.5.

`O=[N+]([O-])NC1=NCCN1Cc1ccc(Cl)nc1` [E, imidacloprid]: the “Thrips Damage Rating” value in the assay with Thrips [1] (3 weeks after planting) is given as 2.25; in the assay on Thrips [1] (4 weeks after planting) it was 2.4; in the assay on Thrips [2] (3 weeks after planting) it was 2.88; in the assay on Thrips [2] (4 weeks after planting), 3.

For the compound `CNC(=O)O/N=C/C(C)(C)SC` [Sample D, aldicarb], the “Thrips Damage Rating” value was 1.13 in the assay with Thrips [1] (3 weeks after planting), 1.5 in the assay with Thrips [1] (4 weeks after planting), 2.5 with Thrips [2] (3 weeks after planting) and 2.1 in the assay on Thrips [2] (4 weeks after planting).

The values above are taken from US20090099127A1, “Nematicidal Compositions and Methods” (priority 2005, published 2009).
